The source made the active and inactive calls. How the calls were made is not given here.

The record followed here is PubChem BioAssay AID489023 (Sanford-Burnham Center for Chemical Genomics, 2010).

The subject of the experiment is 697B cells, BCR-induced NF-kB luciferase reporter luminescence. Put plainly: B-cell receptor NF-kB reporter inhibition – 697B cells, luciferase luminescence, dose response (AID 489023).

As to `CCC(=O)N1c2ccccc2C(N(C(C)=O)c2ccccc2)CC1C` (stereo not drawn), the IC50 was 61 µM (inactive).

For the molecule `Cc1ccc(/C=C2\SC(=S)N(CCC(=O)NNC(=O)c3ccncc3)C2=O)cc1`, the IC50 is > 80 µM (inactive).

For the molecule `COc1ccc2nc(Sc3c([N+](=O)[O-])nc(C)n3Cc3ccccc3)[nH]c2c1`, the IC50 is 18.2 µM.

Consider `CC1CCN(c2c(NCc3ccc(C(=O)N4c5ccccc5CC4C)cc3)c(=O)c2=O)CC1` (stereo not drawn), for which the IC50 was > 80 µM (inactive).

With `Oc1[nH]c2ccccc2c1N=Nc1nc(Nc2ccccc2)nc(N2CCOCC2)n1`, the IC50 is 1.36 µM.

Take `Cc1ccc(C(=O)NNC(=O)CCCN2C(=O)/C(=C/c3ccccc3Cl)SC2=S)cc1`: the IC50 is 22 µM (inactive).

In the case of `COc1cc(C[C@@H]2C(=O)OC[C@H]2Cc2ccc(OC)c(OC)c2)ccc1O`, the IC50 was > 80 µM (inactive).

`CC(C)OCCCNC(=O)c1c(N)n(/N=C/c2ccccn2)c2nc3ccccc3nc12`: the IC50 is > 80 µM (inactive).

As for `CCC(CO)Oc1cc(NCc2ccccc2O)c2ncn(C(C)C)c2c1` (stereo not drawn), the IC50 was > 80 µM (inactive).

In the case of `Cc1ccc(C(=O)OCC(=O)N(CC(C)C)c2c(N)n(Cc3ccccc3)c(=O)[nH]c2=O)o1`, the IC50 was 20.6 µM (inactive).

For the molecule `O=C(CCCN1C(=O)/C(=C/c2ccccc2Cl)SC1=S)NNC(=O)c1ccccc1`, the IC50 is 12.5 µM.

Take `Cc1ccc(-n2c(-c3ccccc3)c[n+]3c2CCc2ccccc2-3)c(C)c1`: the IC50 was 56.7 µM (inactive).

On to `CCc1ccc(/C=C2\SC(=S)N(CCC(=O)Nc3cc(C)on3)C2=O)cc1`, for which the IC50 is 19.3 µM.

Take `Cc1csc(NC(=O)CCc2c(C)nc3cc(-c4ccc(Cl)cc4)nn3c2C)n1`: the IC50 was 4.77 µM.

In the case of `Cc1cc(C)cc(N2C(=O)NC(=O)/C(=C\c3cccn3-c3ccccc3)C2=O)c1`, the IC50 was 36.4 µM (inactive).

Take `CCCCCC/C=C/c1ccc(OC)c([C@H]2[C@H]3C=CC[C@@H](C)[C@@H]3C(=O)N2Cc2ccccc2)c1`: the IC50 is > 80 µM (inactive).

Take `CC(C)c1ccc(/C=C2\SC(=S)N(CCC(=O)NCCCn3ccnc3)C2=O)cc1`: the IC50 is 16.6 µM.

For the molecule `COC(=O)[C@@H]1Cc2c([nH]c3ccccc23)C(C)(C)N1C(=O)CCl`, the IC50 is 1.12 µM.

For the molecule `Cc1ccc(C(=O)CSc2nnc(COc3cccc(C)c3)o2)cc1`, the IC50 is > 80 µM (inactive).

As to `C[C@H]1CCC/C=C/C2C[C@H](O)CC2[C@H](O)/C=C/C(=O)O1` (stereo partly drawn), the IC50 was > 80 µM (inactive).

`CC(C)(C)c1ccc(-n2ncc3c2CCCC3NC(=O)C2(C(N)=O)CC2)cc1` (stereo not drawn): the IC50 was > 80 µM (inactive).

On to `COc1cc(C2C(C#N)=C(N)Oc3cc(N)ccc32)cc(OC)c1OC` (stereo not drawn), for which the IC50 was > 80 µM (inactive).

`CCn1c(=O)cc(SCC(=O)N2CCC3(CC2)OCCO3)c2ccccc21`: the IC50 is > 80 µM (inactive).

Regarding `C[C@H]1CCC/C=C/[C@@H]2C[C@H](O)C[C@H]2[C@H](O)/C=C/C(=O)O1`, the IC50 is > 80 µM (inactive).

Consider `O=C(CCl)N(c1ccc(Cl)cc1)c1c[nH]c2ccccc12`, for which the IC50 was 0.27 µM.

In the case of `C=CCn1c(O)c(C(C)=NC(C)c2ccccc2)c(=O)[nH]c1=O` (stereo not drawn), the IC50 is > 80 µM (inactive).

With `O=C(CCl)Nc1ccccc1Sc1ccccc1`, the IC50 is 15.9 µM.

Take `CC(C)(C)c1ccc(-c2noc(CCC(=O)NCc3ccco3)n2)cc1`: the IC50 was below 0.16 µM.

In the case of `COc1ccccc1/C=C1\SC(=S)N(CCC(=O)Nc2cccc(O)c2)C1=O`, the IC50 is > 80 µM (inactive).

In the case of `COc1ccc(C=C(C(C)=O)C(C)=O)cc1OC`, the IC50 was 57.7 µM (inactive).

In the case of `O=C(C1CCC1)N1CCN(S(=O)(=O)c2ccc([N+](=O)[O-])cc2)CC1`, the IC50 was > 80 µM (inactive).

As to `C/C(=N\Nc1nc(Nc2ccccc2)nc(N2CCOCC2)n1)c1cccs1`, the IC50 is 8.71 µM.

`Cc1c(CCC(=O)N2CCC(C(=O)O)(c3ccccc3)CC2)c(=O)oc2cc3oc4c(c3cc12)CCCC4`: the IC50 is > 80 µM (inactive).

On to `CC1CN(S(=O)(=O)c2ccc(C(=O)Nc3nc(-c4cc5ccccc5o4)cs3)cc2)CC(C)O1` (stereo not drawn), for which the IC50 is > 80 µM (inactive).

As for `CN(C)C(=O)CCc1nc(-c2ccc(C(C)(C)C)cc2)no1`, the IC50 is 18.8 µM.

Regarding `O=C(Cc1cccc2ccccc12)Nc1ccc(-c2cc3ccccc3oc2=O)cc1`, the IC50 was below 0.16 µM.

Consider `Cc1[nH]c2ccccc2c1C(=O)CN1C(=O)NC2(CC(C)CC(C)(C)C2)C1=O` (stereo not drawn), for which the IC50 is 6.97 µM.

For `COc1ccc(/C=C2/SC(=S)N(CCCC(=O)Nc3cccc(O)c3)C2=O)cc1`, the IC50 was 3.88 µM.

As to `C/C=C(/C)C(=O)OC1Cc2c(ccc3ccc(=O)oc23)OC1(C)C` (stereo not drawn), the IC50 is > 80 µM (inactive).

As for `CCOC(=O)Cc1csc(NC(=S)NC(=O)c2ccc(C)cc2)n1`, the IC50 is 5.88 µM.

Take `COc1ccc(C(C(=O)NC2CCCCC2)N(C(=O)CCl)c2ccc(OC)cc2)cc1` (stereo not drawn): the IC50 is 0.57 µM.

Regarding `COCCNC(=O)CSCc1nc(-c2ccc(SC)cc2)oc1C`, the IC50 is 4.56 µM.

As for `CCn1c(=O)cc(SCC(=O)N2CCC(C)CC2)c2ccccc21`, the IC50 is > 80 µM (inactive).

Take `COc1ccc(NC(=S)NCc2ccccc2)c(OC)c1`: the IC50 is > 80 µM (inactive).

As to `CCOc1ccc(-c2cc(CCCC(=O)NCCCOC)no2)cc1`, the IC50 was > 80 µM (inactive).

Turning to `CCn1c(=O)cc(OCC(=O)NCc2ccc(C)o2)c2ccccc21`, the IC50 is > 80 µM (inactive).

Consider `CCN1C(=O)c2cccc3c(S(=O)(=O)Nc4ccccc4)ccc1c23`, for which the IC50 was 40.4 µM (inactive).

For `CC(C)(C)c1ccc(-c2noc(CCC(=O)Nc3cccnc3)n2)cc1`, the IC50 was below 0.16 µM.

For the molecule `O=C(Nc1nc2c(Br)cc(Br)cc2c(=O)s1)c1ccco1`, the IC50 was 1.8 µM.

As to `N=c1ccn(Cc2c(Cl)cccc2Cl)cc1`, the IC50 is > 80 µM (inactive).

With `CCN1C(=O)c2cccc3c(S(=O)(=O)Nc4ccccn4)ccc1c23`, the IC50 is 25.2 µM (inactive).

For the molecule `CCCC(=O)Nc1ccc(Sc2ccc([N+](=O)[O-])cc2)cc1`, the IC50 is 69.3 µM (inactive).

Consider `Cc1nc2cc(-c3ccc(Cl)cc3)nn2c(C)c1CCC(=O)NC(C)c1ccc2c(c1)OCCO2` (stereo not drawn), for which the IC50 is 23.7 µM (inactive).

As for `COc1ccc(OC)c(C2CC(=O)Nc3cc(OC)c(OC)c(OC)c32)c1` (stereo not drawn), the IC50 is > 80 µM (inactive).

In the case of `O=C(CCCc1nc(-c2ccccc2Cl)no1)NC1CCCC1`, the IC50 was 1.25 µM.

For the molecule `COC(=O)CSc1nnc(-c2sc3ccccc3c2Cl)o1`, the IC50 is 10.3 µM.

Turning to `Cc1ccc(S(=O)(=O)N2CCCCC2CCNC(=O)C(=O)NCc2ccncc2)cc1` (stereo not drawn), the IC50 is 11 µM.

With `Cc1cc(C)c2nc(NC(=O)C3CSC4(C)CCC(=O)N34)sc2c1` (stereo not drawn), the IC50 was 32.2 µM (inactive).

For the molecule `CCCCn1c2c(c(=N)c3ccccc31)CCC2`, the IC50 was > 80 µM (inactive).

Take `O=C(CCCN1C(=O)/C(=C/c2ccccc2Cl)SC1=S)Nc1ccccn1`: the IC50 is 3.97 µM.

`O=C(Nc1nc(-c2ccccc2)cs1)c1ccccc1NS(=O)(=O)c1ccc(F)cc1`: the IC50 is 21.7 µM (inactive).

Turning to `Cc1cc(C)c2nc(NC(=O)[C@@H](NC(=O)c3cccc(S(=O)(=O)N4CCOCC4)c3)C(C)C)sc2c1`, the half-maximal inhibitory concentration (IC50) is 16 µM.

As for `COc1ccc(/C=C2\SC(=S)N(CCC(=O)Nc3ccc(C(=O)O)cc3)C2=O)cc1OC`, the IC50 was > 80 µM (inactive).
